Assay results from patent USRE34387E, “Method for restoring depleted purine nucleotide pools” (priority 1988, dated 1993).
Values belong to the compound of their own block, whether it stands above or below them.

Legend:
[1] = target: T1, adenylosuccinate lyase (cardiac muscle) (Mus musculus, UniProt P54822); settings: bifunctional enzyme; cited from earlier work
T1 construct: the hearts and gastrocnemius muscles were excised, weighed, and homogenized to a slurry; from tissue; host or cells: mouse heart (C57BL/6J), dialyzed 10,000×g supernatant
T1 sequence (P54822 2-484 limits assumed): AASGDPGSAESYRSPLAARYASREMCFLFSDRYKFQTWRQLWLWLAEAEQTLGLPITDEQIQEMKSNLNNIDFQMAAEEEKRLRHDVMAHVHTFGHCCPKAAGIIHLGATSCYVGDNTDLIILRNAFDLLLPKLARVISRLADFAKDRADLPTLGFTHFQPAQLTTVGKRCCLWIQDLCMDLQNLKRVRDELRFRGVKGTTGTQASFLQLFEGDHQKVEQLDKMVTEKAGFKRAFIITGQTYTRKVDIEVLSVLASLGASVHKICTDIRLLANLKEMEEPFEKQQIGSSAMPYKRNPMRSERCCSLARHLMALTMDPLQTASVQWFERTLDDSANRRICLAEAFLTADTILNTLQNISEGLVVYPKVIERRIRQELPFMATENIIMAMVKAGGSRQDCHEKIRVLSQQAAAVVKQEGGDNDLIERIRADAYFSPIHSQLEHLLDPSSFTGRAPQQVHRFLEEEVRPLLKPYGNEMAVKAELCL

Cardiac muscle = test: Purine metabolism in normal cardiac muscle during and after AICAriboside infusion
myocardium = test: Regional myocardial blood flow, coronary occlusion and 24 hr reperfusion; format: in vivo, dogs; settings: any time point
Procedure: (§1) Catheters were placed in the left atrium and aorta, and a snare positioned around the left anterior descending coronary artery in 15 open-chest dogs. Regional myocardial blood flow was measured and transmural tissue samples were obtained using known techniques. Blood flow measurements and tissue samples were obtained prior to and just before release of a 12-minute coronary occlusion. The chest was closed and the animals allowed to awaken. Twenty-four hours later, the animals were anesthetized, the chest opened, blood flow measured, and tissue samples obtained. No hemodynamic measurements were made on the animals.
(§2) In seven animals, 200 mM AICAriboside (Sigma Chemical Co.) was infused into the left atrial catether at either 14 μmol/min (n=2) or 37 μmol/min (n=5) beginning with coronary occlusion and continuing for 24 hours. Eight control animals were infused with an equal volume of saline over 24 hours.
(§3) All comparisons between AICAriboside and saline treated animals were done by unpaired analyses.

[2] = Serum urate concentrations after AICAriboside infusion; format: in vivo, adult mongrel dogs; settings: following infusion of 8 mmol
Procedure: Animal Preparation--Seven adult mongrel dogs were anesthetized intramuscularly with 40 mg of morphine sulfate and intravenously with 80 mg/kg of chloralose, an endotraceal tube was inserted, and ventilation was maintained with an Emerson volume-cycled respirator and 100% oxygen. The heart was exposed through a left lateral thoracotomy, polyvinyl chloride catheters (3-mm outer diameter) were inserted into the left atrium and into the aorta through the right femoral artery, and a Statham TTQ electromagnetic flow meter probe was positioned around the ascending aorta. […] Aortic flow was measured with a Howell Instruments Series 1000 Flowmeter, and stroke volume and cardiac output were calculated from the aortic flow measurement. All hemodynamic data were monitored continuously throughout the course of the study. […]
After hemodynamic parameters had stabilized, regional myocardial blood flow was measured by injecting radioactively labled microspheres. […] Venous and arterial blood samples were also obtained at 42 min. of infusion, and regional myocardial blood flow was measured at 10 and 39 min. of AICAriboside infusion. […]
Other Methods--Serum urate was determined by the enzymatic spectrophotometric method as previously described in Liddle et al., J. Lab. […]

postischemic myocardium = test: Nucleotide and creatine phosphate content in postischemic myocardium; format: in vivo, dogs
Procedure: as §1, §2
Nucleotide and creatine phosphate analyses were performed by high performance liquid chromatography on acid extracts of the tissue as previously described. Nucleotide analysis is described in Example 1, and creatine phosphate analysis is described in Juengling and Kammermeier, Anal. Biochem., 102, 358-361 (1980).
as §3

cardiovascular system [3] = test system: cardiovascular system; set-up: species or system adult mongrel dogs; settings: dog, in vivo
Procedure: Animal Preparation--Seven adult mongrel dogs were anesthetized intramuscularly with 40 mg of morphine sulfate and intravenously with 80 mg/kg of chloralose, an endotraceal tube was inserted, and ventilation was maintained with an Emerson volume-cycled respirator and 100% oxygen. The heart was exposed through a left lateral thoracotomy, polyvinyl chloride catheters (3-mm outer diameter) were inserted into the left atrium and into the aorta through the right femoral artery, and a Statham TTQ electromagnetic flow meter probe was positioned around the ascending aorta. The aortic pressure catheter was connected to a Statham P23 Db transducer (Statham Instruments, Inc., Oxnard, Calif.) with the zero reference at the midchest level. Aortic flow was measured with a Howell Instruments Series 1000 Flowmeter, and stroke volume and cardiac output were calculated from the aortic flow measurement. All hemodynamic data were monitored continuously throughout the course of the study. In 5 of the animals, the skin of the left dorsal hindlimb was opened and the gastrocnemius muscle was identified for subsequent tissue sampling.
After hemodynamic parameters had stabilized, regional myocardial blood flow was measured by injecting radioactively labled microspheres. Tissue samples were obtained from the left ventricle and from the left gastrocnemius muscle. A venous blood sample was also obtained. AICAriboside (100 mM) was then infused into the left atrium at 1.9 ml/min. Repeat tissue samples were taken from the left ventricle at 15, 30 and 42 min. of infusion, and tissue samples were taken from the gastrocnemius muscle at 30 min. of infusion. Venous and arterial blood samples were also obtained at 42 min. of infusion, and regional myocardial blood flow was measured at 10 and 39 min. of AICAriboside infusion. AICAriboside infusion was terminated after 42 min., and tissue samples were taken from the left ventricle at 10, 20, 30 and 60 min. postinfusion and from the left gastrocnemius muscle at 2,22 and 60 min. postinfusion. Venous blood samples were obtained at 10, 30 and 60 min. after AICAriboside infusion. In 4 of the 7 dogs, 400 mM formate was infused intravenously at the rate of 1.9 ml/min. for 42 min. prior to and during AICAriboside infusion. These same animals also received 6 mg of folinic acid as an intravenous bolus 30 min. prior to and 15 min. after initiating AICAriboside infusion.

[4] = test system: skeletal muscle (gastrocnemius); test: Purine metabolism in skeletal muscle during and after AICAriboside infusion
cardiovascular system [5] = settings: cited from earlier work; for hemodynamic effects on the cardiovascular system: purine precursors previously used to restore ATP
[6] = target: T2, adenylosuccinate lyase (skeletal muscle) (Mus musculus, UniProt P54822); test: Adenylosuccinate lyase assay, skeletal muscle enzyme; format: biochemical, C57BL/6J mice; settings: pH 7.4, 25° C., 4 enzyme preparations, read-out: apparent Km of adenylosuccinate lyase for adenylosuccinate
T2 construct: the hearts and gastrocnemius muscles were excised, weighed, and homogenized to a slurry; from tissue; host or cells: mouse gastrocnemius muscle (C57BL/6J), dialyzed 10,000×g supernatant
T2 sequence (P54822 2-484 limits assumed): T1 sequence (P54822 2-484 limits assumed)
Procedure: (§4) Preparation and Assay of Adenylosuccinate Lyase--Six-week-old C57BL/6J mice were killed, and the hearts and gastrocnemius muscles were excised, weighed, and homogenized to a slurry in 4 volumes of 50 mM Tris-HCl, pH 7.4 at 25° C. containing 1 mM EDTA and 1 mM β-mercaptoethanol in a TenBroeck glass homogenizer. The homogenate was centrifuged at 10,000×g for 15 min and the supernatant was dialyzed against 1,000 volumes of the extraction buffer for 2 h at 4° C. The lyase activity was partially stabilized by the addition of EDTA and β-mercaptoethanol, but some activity was lost even on storage at -70° C.
(§5) The assays were carried out at pH 7.4 were reaction mixtures that contained 50 mM Tris-HCl buffer, 1 mM EDTA, 1mM β-mercaptoethanol, 20 μM adenylosuccinate, and the enzyme extract (protein concentration, 0.13-0.20 mg/ml). The decrease in absorbance at 280 nm was measured using a Gilford recording spectrophotometer. All assays were done at 25° C. and were linear with respect to time of incubation and with the amount of protein in extract added to the assay.
(§6) These are average values for experiments with 4 separate enzyme preparations. The experimental points in the double reciprocal plots were fitted to the best line by the method of least squares with all points being weighted equally.

[7] = target: T1, adenylosuccinate lyase (cardiac muscle); test: Adenylosuccinate lyase assay, cardiac muscle enzyme; format: biochemical, C57BL/6J mice; settings: pH 7.4, 25° C., 4 enzyme preparations, read-out: apparent Km of adenylosuccinate lyase for adenylosuccinate
Procedure: as §4, §5, §6

[8] = before, during or after infusion, detection limit 3 nmol/g
[9] = myocardial, throughout the study
[10] = endo, preocclusion (before infusion)
[11] = epi, preocclusion (before infusion)
[12] = skeletal muscle, infusion and up to 60 min thereafter

Structure (SMILES): NC(=O)c1ncn([C@@H]2O[C@H](COP(=O)(O)O)[C@@H](O)[C@H]2O)c1N [AICAR, 5-Amino-4-imidazolecarboxamide Ribotide]
- effect on both lyase activities of adenylosuccinate lyase [1]: inhibited by AICAR

Structure (SMILES): NC(=O)c1ncn([C@@H]2O[C@H](CO)[C@@H](O)[C@H]2O)c1N [AICAriboside, 5-amino-4-imidazolecarboxamide riboside]
- mean AICAriboside content of cardiac muscle, greater than that of skeletal muscle (Cardiac muscle; 30 min of infusion): 66%
- uptake by myocardial cells (Cardiac muscle; Example 1): taken up rapidly by myocardial cells
- Adenylosuccinate in biopsies (Cardiac muscle; [8]): not detectable
- time of AICAR peak (Cardiac muscle; cardiac and skeletal muscle): peaked minutes after AICAriboside infusion was stopped
- IMP content increase (Cardiac muscle; cardiac muscle): 3-4 fold
- myocardial content of CTP (Cardiac muscle; cardiac muscle): no detectable change
- adenylate energy charge (Cardiac muscle; cardiac muscle, 0.929±0.003 before infusion): did not vary during the course of the experiment
- creatine phosphate content (Cardiac muscle; cardiac muscle, 6.8±0.4 μmol/g at beginning): did not vary significantly
- TAN (total adenine nucleotide) (Cardiac muscle; cardiac muscle, 20 min postinfusion): 6.70 ± 0.10 μmol/g. wet weight
- Adenosine (Cardiac muscle; cardiac muscle, during infusion): did not increase
- AICAriboside concentration after infusion was stopped (Cardiac muscle; cardiac muscle, rate of decline greater than in skeletal): fell rapidly in both tissues
- ADP change (Cardiac muscle; cardiac tissue, any time point): did not change significantly at any time point
- AMP change (Cardiac muscle; cardiac tissue, any time point): did not change significantly at any time point
- ATP content (increase to) (Cardiac muscle; cardiac tissue, from 5.55±0.17, p<0.02): 6.07±0.17 μmol/g , wet weight
- accumulation of AICAriboside-TP (Cardiac muscle; cardiac versus skeletal muscle): greater in cardiac muscle
- NAD+ content (Cardiac muscle; heart, did not vary throughout infusion): 0.64 ± 0.01 µmol/g
- hypoxanthine content (Cardiac muscle; [9]): only minimally increased
- inosine content (Cardiac muscle; [9]): only minimally increased
- distribution from plasma (Cardiac muscle; similar concentrations in plasma and myocardium): readily diffuses from plasma into the interstitial space and intracellular compartments
- regional flow versus saline group (myocardium): no differences in regional flow at any time point
- mean serum urate concentration increase [2]: 3.7 fold
- GTP content versus saline (postischemic myocardium; 24 hours reperfusion, epicardium and endocardium, P<0.003): greater in the AICAriboside group
- epicardial and endocardial ATP content versus saline (postischemic myocardium; 24 hours reperfusion, previously ischemic region, P<0.001): greater in the AICAriboside group
- GTP content restoration (postischemic myocardium; 24 hours, saline 82% (epi), 78% (endo) of nonischemic): restored to nonischemic levels
- ATP content increase after reperfusion (postischemic myocardium; endo, 24 hours, saline group 21%): 63%
- ADP (postischemic myocardium; [10]): 0.92 ± 0.03 μmol/g wet wt
- AMP (postischemic myocardium; [10]): 0.066 ± 0.007 μmol/g wet wt
- CP (creatine phosphate) (postischemic myocardium; [10]): 6.8 ± 0.7 μmol/g wet wt
- CTP (postischemic myocardium; [10]): 0.055 ± 0.001 μmol/g wet wt
- IMP (postischemic myocardium; [10]): 0.004 ± 0.001 μmol/g wet wt
- NAD (postischemic myocardium; [10]): 0.058 ± 0.04 μmol/g wet wt
- UTP (postischemic myocardium; [10]): 0.132 ± 0.004 μmol/g wet wt
- ATP content increase after reperfusion (postischemic myocardium; epi, 24 hours, saline group 2%): 41%
- ADP (postischemic myocardium; [11]): 0.87 ± 0.03 μmol/g wet wt
- AMP (postischemic myocardium; [11]): 0.064 ± 0.016 μmol/g wet wt
- CP (creatine phosphate) (postischemic myocardium; [11]): 7.7 ± 0.6 μmol/g wet wt
- IMP (postischemic myocardium; [11]): 0.005 ± 0.002 μmol/g wet wt
- NAD (postischemic myocardium; [11]): 0.060 ± 0.02 μmol/g wet wt
- UTP (postischemic myocardium; [11]): 0.122 ± 0.005 μmol/g wet wt
- ATP percentage drop during ischemia versus saline (postischemic myocardium; occlusion): comparable in both groups
- AMP or ADP content versus saline (postischemic myocardium; postischemic region): no detectable differences
- CTP content versus saline (postischemic myocardium; postischemic region): no statistically significant differences
- NAD+ content versus saline (postischemic myocardium; postischemic region): no statistically significant differences
- Total adenine nucleotide content versus saline (postischemic myocardium; postischemic region): also greater in the AICAriboside group
- UTP content versus saline (postischemic myocardium; postischemic region): no statistically significant differences
- Heart rate (cardiovascular system [3]): not significantly altered
- aortic systolic and diastolic pressure (cardiovascular system [3]): not significantly altered
- cardiac output (cardiovascular system [3]): not significantly altered
- epicardial and endocardial regional blood flow (cardiovascular system [3]): not significantly altered
- Adenylosuccinate in biopsies [4, 8]: not detectable
- AICAriboside concentration after infusion was stopped ([4]; skeletal muscle): fell rapidly in both tissues
- IMP content rise ([4]; skeletal muscle): 6-7 fold
- creatine phosphate content ([4]; skeletal muscle, 10.6±0.5 μmol/g at beginning): did not vary significantly
- NAD+ content ([4]; skeletal muscle, did not vary throughout infusion): 0.32 ± 0.04 µmol/g
- Adenosine ([4]; skeletal muscle, during infusion): did not increase
- hypoxanthine content [4, 12]: consistently elevated
- inosine content [4, 12]: consistently elevated

Structure (SMILES): Nc1ncnc2c1ncn2[C@@H]1O[C@H](CO)[C@@H](O)[C@H]1O [adenosine]
- hemodynamic status of the animal (cardiovascular system [5]; adenosine administration): profound changes
- hemodynamic effects on the cardiovascular system (cardiovascular system [5]): deleterious hemodynamic effects

- Km [6]: 4.5 ± 1.5 µM
- Km [7]: 2.2 ± 0.3 µM
Structure (SMILES): O=C(O)C[C@H](Nc1ncnc2c1ncn2[C@@H]1O[C@H](COP(=O)(O)O)[C@@H](O)[C@H]1O)C(=O)O [adenylosuccinate]

Structure (SMILES): O=c1[nH]cnc2nc[nH]c12 [hypoxanthine]
- hemodynamic effects on the cardiovascular system (cardiovascular system [5]): deleterious hemodynamic effects

Structure (SMILES): OC[C@H]1O[C@@H](n2cnc3c(O)ncnc32)[C@H](O)[C@@H]1O [inosine]
- hemodynamic effects on the cardiovascular system (cardiovascular system [5]): deleterious hemodynamic effects
